Laboratory results taken from patent publication US4780462A, “Antihypertensive 1,5-benzothiazepine derivatives and compositions thereof” (Kotokuki Seiya Kau Co., Ltd., priority 1986, dated 1988).

Tests used:
Guinea-pig taenia caecum = experiment: Ca++-antagonistic activity (isolated guinea-pig taenia caecum); conditions: Cavia porcellus, 0.05 h; Ca++-induced contraction of taenia caecum, Ca++-free Krebs Ringer; pretreatment with compound 3 minutes before; read-out: PA2 value (converted)
Experimental: Ca^++ -Antagonistic activity. Experiments are carried out according to the method of M. Ferrari (Arch. Intern. Pharmacoadyn. 174, 223 (1968) Guinea-pig taenia caecum is isolated and suspended in a bath which is filled with Ca^++ -free Krebs Ringer solution for 30 minutes. In this condition, taenia caecum is contracted by elevating Ca^++ -ion concentration of Krebs Ringer and obtained a dose-response curve against Ca^++ -ion. Pretreatment with the compound of this invention before 3 minutes, and obtained a dose-response curve under the existence of the compound of this invention.
From these two dose-response curves, PA2 value is calculated and PA2 is expressed as index of activities. (Table 1)

[1] = system: isolated guinea-pig heart; experiment: Coronary artery dilating activity (Rangendorf method, isolated guinea-pig heart); conditions: coronary blood flow examined for 2 minutes
Text: The coronary artery dilating activity of the compounds is estimated by Rangendorf method (Pfugers. Arch. Ges. Physiol. 62, 291 (1895)) using the isolated guinea-pig heart.

[2] = system: anesthetized normotensive rats; experiment: Antihypertensive activity on anesthetized normotensive rats; type: in vivo; conditions: dose which lowers the mean blood pressure by 15 mmHg, i.v. (femoral vein); urethane anesthetized normotensive male Wistar rats
Experimental: The antihypertensive activities of the compounds on anesthetized normotensive rats were tested according to the method of H. Sogabe.^(1) Male Wistar rats weighing 200-300 g were anesthetized with urethane (1.2 g/kg. i.v.). Blood pressure was measured by a transducer (Nihon Koden RT-5) connected the catheter inserted into the femoral artery. The test compounds in physiological saline (0.1 ml/100 g. B.W.) were injected via the femoral vein. The antihypertensive activity was assessed by comparing with MBP15 (dose which lowers the mean blood pressure by 15 mmHg, mg/kg i.v.).
(1) Hirobumi Sogabe "Jikken Kouketsuatsushou nyuumon" p227 (Eikoudo 1968).

[3] = Acute toxicity in mice per os; conditions: mouse, in vivo, po
Text: The acute toxicity of the compounds of this invention in mice per os is as follows. (Table 4)

Cc1cccc(C)c1OCCNCCC(=O)N1CCCSc2ccccc21 [Compound 4, 5-[3-(2-(2,6-dimethylphenoxy)ethylamino)propionyl]-2,3,4,5-tetrahydro-1,5-benzothiazepine·fumarate]
Kb (Guinea-pig taenia caecum): 102 nM
maximum increased blood flow ([1]; 10 μg/heart): 7.2 mL
maximum increased blood flow ([1]; 30 μg/heart): 19.2 mL

O=C(CCNCCOc1ccc([N+](=O)[O-])cc1)N1CCCSc2ccccc21 [Compound 16, 5-[3-(2-(4-nitrophenoxy)ethylamino)propionyl]-2,3,4,5-tetrahydro-1,5-benzothiazepine·fumarate]
maximum increased blood flow ([1]; 10 μg/heart): 4.2 mL

Cc1cccc(C)c1SCCNCCC(=O)N1CCCSc2ccccc21 [Compound 17, 5-[3-(2-(2,6-dimethylphenylthio)ethylamino)propionyl]-2,3,4,5-tetrahydro-1,5-benzothiazepine·fumarate]
Antihypertensive act. (M.B.P.15) [2]: 9.3 µg

O=C(CCNCCOc1cccc([N+](=O)[O-])c1)N1CCCSc2ccccc21 [Compound 7, 5-[3-(2-(3-nitrophenoxy)ethylamino)propionyl]-2,3,4,5-tetrahydro-1,5-benzothiazepine·fumarate]
Kb (Guinea-pig taenia caecum): 245 nM
Antihypertensive act. (M.B.P.15) [2]: 4.2 µg

Cc1cc(C)c(OCCNCCC(=O)N2CCCSc3ccccc32)c(C)c1 [Compound 12, 5-[3-(2-(2,4,6-trimethylphenoxy)ethylamino)propionyl]-2,3,4,5-tetrahydro-1,5-benzothiazepine·fumarate]
Kb (Guinea-pig taenia caecum): 55 nM
maximum increased blood flow ([1]; 10 μg/heart): 11.3 mL
maximum increased blood flow ([1]; 30 μg/heart): 18.3 mL

COc1cccc(OC)c1OCCNCCC(=O)N1CCCSc2ccccc21 [Compound 1, 5-[3-(2-(2-,6-dimethoxyphenoxy)ethylamino)-propionyl]-2,3,4,5-tetrahydro-1,5-benzothiazepine·fumarate]
Kb (Guinea-pig taenia caecum): 813 nM

Nc1cccc(OCCNCCC(=O)N2CCCSc3ccccc32)c1 [Compound 6, 5-[3-(2-(3-aminophenoxy)ethylamino)propionyl]-2,3,4,5-tetrahydro-1,5-benzothiazepine·fumarate]
maximum increased blood flow ([1]; 10 μg/heart): 4.6 mL
maximum increased blood flow ([1]; 30 μg/heart): 6.0 mL

CC(C)c1cccc(C(C)C)c1OCCNCCC(=O)N1CCCSc2ccccc21 [Compound 3, 5-[3-(2-(2,6-diisopropylphenoxy)ethylamino)-propionyl]-2,3,4,5-tetrahydro-1,5-benzothiazepine·fumarate]
LD50 [3]: 1500 mg/kg
Antihypertensive act. (M.B.P.15) [2]: 1.35 µg

O=C(CCNCCSc1ccc([N+](=O)[O-])cc1)N1CCCSc2ccccc21 [Compound 5, 5-[3-(2-(4-nitrophenylthio)ethylamino)propionyl]-2,3,4,5-tetrahydro-1,5-benzothiazepine·fumarate]
Kb (Guinea-pig taenia caecum): 97.7 nM
Antihypertensive act. (M.B.P.15) [2]: 2.0 µg

COc1ccc(OCCNCCC(=O)N2CCCSc3ccccc32)cc1 [Compound 8, 5-[3-(2-(4-methoxyphenoxy)ethylamino)propionyl]-2,3,4,5-tetrahydro-1,5-benzothiazepine·fumarate]
Kb (Guinea-pig taenia caecum): 603 nM

O=C(CCNCCOc1ccc(Cl)cc1Cl)N1CCCSc2ccccc21 [Compound 13, 5-[3-(2-(2,4-dichlorophenoxy)ethylamino)propionyl]-2,3,4,5-tetrahydro-1,5-benzothiazepine·fumarate]
Kb (Guinea-pig taenia caecum): 126 nM
Antihypertensive act. (M.B.P.15) [2]: 3.5 µg

Cc1cccc(OCCNCCC(=O)N2CCCSc3ccccc32)c1 [Compound 11, 5-[3-(2-(3-methylphenoxy)ethylamino)propionyl]-2,3,4,5-tetrahydro-1,5-benzothiazepine·fumarate]
maximum increased blood flow ([1]; 3 μg/heart): 7.7 mL
maximum increased blood flow ([1]; 30 μg/heart): 16.5 mL
Antihypertensive act. (M.B.P.15) [2]: 34.7 µg

Nc1ccccc1OCCNCCC(=O)N1CCCSc2ccccc21 [Compound 15, 5-[3-(2-(2-aminophenoxy)ethylamino)propionyl]-2,3,4,5-tetrahydro-1,5-benzothiazepine·fumarate]
maximum increased blood flow ([1]; 30 μg/heart): 2.0 mL
LD50 [3]: 374 mg/kg
